Measurements published in patent publication US20220096512A1, “WATER-BASED ANTIFUNGAL COMPOSITIONS” (Sigma-Aldrich Co. LLC, priority 2019, published 2022).
≈ marks a conversion by molar mass, not a printed value.

Columns and labels:
Aspergillus niger = test: Diffusion disc MIC testing against Aspergillus niger; format: cell-based; settings: diffusion paper disc, 10 μL applied, incubated overnight at 30° C., average of three experiments
Experimental: (§1) Minimum inhibitory concentration (MIC) testing was determined for the inventive nystatin formulation described herein, along with comparative antifungal agents.
(§2) Nystatin (Solid) and amphotericin were dissolved in DMF in 1 mg/mL. Econazole nitrate was dissolved in PBS to achieve 1 mg/mL. Nystatin formulation diluted with PBS to achieve the same potency as Nystatin (Solid).
(§3) Antibiotic medium 19 was sterilized in autoclave, after sterilization when the temperature lowered to 45° C. and 1 mL from spore suspension was added. 8 mL from this mixture dispensed to each petri dish.
(§4) On each dish 6 sterile diffusion paper disc were placed, 10 μL from each antibiotic were applied in 10, 15, 20, 25, 30, 35 μg/mL concentrations. Where MIC concentrations were below 10, lower concentrations were used: 2, 5, 7.5 μg/mL
(§5) The petri dishes were incubated overnight at 30° C. The MIC were determined as the lower concentration that inhibition could be visualized.

Candida albicans = test: Diffusion disc MIC testing against Candida albicans; format: cell-based; settings: diffusion paper disc, 10 μL applied, incubated overnight at 30° C., average of three experiments
Experimental: as §1, §2, §3, §4, §5

Row | Compound | MIC (Aspergillus niger; Aspergillus niger, read-out: Inhibition of Aspergillus niger (MIC, lower concentration at which inhibition could be visualized)) | Inhibition of Candida albicans (MIC, lower concentration at which inhibition could be visualized) (Candida albicans) | Inhibition of Aspergillus niger (MIC, lower concentration at which inhibition could be visualized) (Aspergillus niger) | Inhibition of Aspergillus niger (MIC, lower concentration at which inhibition could be visualized) (Aspergillus niger; listed as Nystatin methyl ester)
1 | C[C@@H]1[C@H](O)[C@@H](C)/C=C/C=C/C=C/C=C/C=C/C=C/C=C/[C@H](O[C@@H]2O[C@H](C)[C@@H](O)[C@H](N)[C@@H]2O)C[C@@H]2O[C@](O)(C[C@@H](O)C[C@@H](O)[C@H](O)CC[C@@H](O)C[C@@H](O)CC(=O)O[C@H]1C)C[C@H](O)[C@H]2C(=O)O [Amphotericin, Amphotericin B] | 31.5 µg/mL (≈ 34.1 µM) | – | – | –
2 | Clc1ccc(COC(Cn2ccnc2)c2ccc(Cl)cc2Cl)cc1 (stereo not shown) [Econazole, Econazole nitrate] | – | No inhibition | No inhibition | –
3 | C[C@@H]1[C@H](O)[C@@H](C)/C=C/C=C/CC/C=C/C=C/C=C/C=C/C(O[C@H]2O[C@H](C)[C@@H](O)[C@H](N)[C@@H]2O)CC2O[C@](O)(CC(O)C(O)CCC(O)CC(O)CC(O)CC(=O)O[C@H]1C)CC(O)C2C(=O)O (stereo partly shown) [Nystatin] | – | 14 µg/mL | 22.5 µg/mL | –
4 | Nystatin Methyl ester | – | 30 µg/mL | No inhibition | no observed inhibition
5 | Polymixin B | – | No inhibition | No inhibition | –
